{
  "source": "ChEMBL document CHEMBL2424629",
  "about": "“Structure-based design, synthesis, and anticonvulsant activity of isatin-1-N-phenylacetamide derivatives” (Med Chem Res, 2013)",
  "key": {"[1]": {"experiment": "Neurotoxicity in ip dosed BALB/c mouse after 30 mins by rotarod test", "type": "toxicity, organism-based", "details": "in vivo"}, "Mus musculus [2]": {"organism": "Mus musculus", "experiment": "Protective index, ratio of TD50 for BALB/c mouse by rotarod test to ED50 for BALB/c mouse by maximal electroshock seizure test", "type": "functional"}, "Mus musculus [3]": {"tested_on": "Mus musculus", "experiment": "Anticonvulsant activity in BALB/c mouse assessed as protection against maximal electroshock-induced seizure at 100 mg/kg, ip after 0.5 to 4 hrs", "type": "functional, organism-based", "parameters": "dose 100 mg/kg"}, "Mus musculus [4]": {"tested_on": "Mus musculus", "experiment": "Neurotoxicity in BALB/c mouse at 300 mg/kg, ip after 0.5 to 4 hrs by rotarod test", "type": "toxicity, organism-based", "parameters": "dose 300 mg/kg, route intraperitoneal", "details": "in vivo"}, "Mus musculus [5]": {"tested_on": "Mus musculus", "experiment": "Neurotoxicity in BALB/c mouse at 100 mg/kg, ip after 0.5 to 4 hrs by rotarod test", "type": "toxicity, organism-based", "parameters": "dose 100 mg/kg, route intraperitoneal", "details": "in vivo"}, "Mus musculus [6]": {"tested_on": "Mus musculus", "experiment": "Anticonvulsant activity in ip dosed BALB/c mouse assessed as protection against maximal electroshock-induced seizure after 30 mins", "type": "functional", "details": "0.5 h"}, "Mus musculus [7]": {"tested_on": "Mus musculus", "experiment": "Anticonvulsant activity in BALB/c mouse assessed as protection against maximal electroshock-induced seizure at 300 mg/kg, ip after 0.5 to 4 hrs", "type": "functional, organism-based", "parameters": "dose 300 mg/kg"}},
  "note": "The source made the active and inactive calls. The calls are words filed in the database; no cut-off is given here.",
  "data": [
    {"smiles": "O=C(CN1C(=O)C(=O)c2ccccc21)Nc1ccccc1", "values": [
      {"measurement": "TD50 at 0.5 h", "setting": "[1]", "value": "> 1000", "unit": "mg/kg"},
      {"measurement": "Ratio TD50/ED50", "setting": "Mus musculus [2]", "value": ">10.6"},
      {"measurement": "Activity", "setting": "Mus musculus [3]", "value": "Active"},
      {"measurement": "Activity", "setting": "Mus musculus [4]", "value": "Non-toxic"},
      {"measurement": "Activity", "setting": "Mus musculus [5]", "value": "Non-toxic"},
      {"measurement": "ED50", "setting": "Mus musculus [6]", "value": 94.7, "unit": "mg/kg"}
    ]},
    {"smiles": "O=C1Nc2ccccc2C1=O", "note": "[ISATIN]", "values": [
      {"measurement": "Activity", "setting": "Mus musculus [7]", "value": "Active"},
      {"measurement": "Activity", "setting": "Mus musculus [4]", "value": "Non-toxic"},
      {"measurement": "Activity", "setting": "Mus musculus [5]", "value": "Non-toxic"}
    ]},
    {"smiles": "O=C(CN1C(=O)C(=O)c2cc(Br)cc(Br)c21)Nc1ccccc1", "values": [
      {"measurement": "Activity", "setting": "Mus musculus [7]", "value": "Active"},
      {"measurement": "Activity", "setting": "Mus musculus [4]", "value": "Non-toxic"},
      {"measurement": "Activity", "setting": "Mus musculus [5]", "value": "Non-toxic"}
    ]},
    {"smiles": "O=C(CN1C(=O)C(=O)c2ccc(F)cc21)Nc1ccccc1", "values": [
      {"measurement": "Activity", "setting": "Mus musculus [3]", "value": "inactive"},
      {"measurement": "Activity", "setting": "Mus musculus [4]", "value": "Non-toxic"},
      {"measurement": "Activity", "setting": "Mus musculus [5]", "value": "Non-toxic"}
    ]},
    {"smiles": "O=C(CN1C(=O)C(=O)c2cccc([N+](=O)[O-])c21)Nc1ccccc1", "values": [
      {"measurement": "Activity", "setting": "Mus musculus [3]", "value": "Active"},
      {"measurement": "Activity", "setting": "Mus musculus [4]", "value": "Non-toxic"},
      {"measurement": "Activity", "setting": "Mus musculus [5]", "value": "Non-toxic"}
    ]},
    {"smiles": "O=C(CN1C(=O)C(=O)c2cccc(Br)c21)Nc1ccccc1", "values": [
      {"measurement": "Activity", "setting": "Mus musculus [3]", "value": "inactive"},
      {"measurement": "Activity", "setting": "Mus musculus [4]", "value": "Non-toxic"},
      {"measurement": "Activity", "setting": "Mus musculus [5]", "value": "Non-toxic"}
    ]},
    {"smiles": "O=C(CN1C(=O)C(=O)c2cc(F)ccc21)Nc1ccccc1", "values": [
      {"measurement": "TD50 at 0.5 h", "setting": "[1]", "value": "> 800", "unit": "mg/kg"},
      {"measurement": "Ratio TD50/ED50", "setting": "Mus musculus [2]", "value": ">9.1"},
      {"measurement": "Activity", "setting": "Mus musculus [3]", "value": "Active"},
      {"measurement": "Activity", "setting": "Mus musculus [4]", "value": "Non-toxic"},
      {"measurement": "Activity", "setting": "Mus musculus [5]", "value": "Non-toxic"},
      {"measurement": "ED50", "setting": "Mus musculus [6]", "value": 88, "unit": "mg/kg"}
    ]},
    {"smiles": "O=C(CN1C(=O)C(=O)c2ccc(Cl)cc21)Nc1ccccc1", "values": [
      {"measurement": "Activity", "setting": "Mus musculus [3]", "value": "inactive"},
      {"measurement": "Activity", "setting": "Mus musculus [4]", "value": "Non-toxic"},
      {"measurement": "Activity", "setting": "Mus musculus [5]", "value": "Non-toxic"}
    ]},
    {"smiles": "CCC1(c2ccccc2)C(=O)NC(=O)NC1=O", "note": "[PHENOBARBITAL]", "values": [
      {"measurement": "TD50 at 0.5 h", "setting": "[1]", "value": "> 69", "unit": "mg/kg"},
      {"measurement": "ED50", "setting": "Mus musculus [6]", "value": 21.8, "unit": "mg/kg"}
    ]},
    {"smiles": "Cc1cccc2c1N(CC(=O)Nc1ccccc1)C(=O)C2=O", "values": [
      {"measurement": "TD50 at 0.5 h", "setting": "[1]", "value": "> 1000", "unit": "mg/kg"},
      {"measurement": "Ratio TD50/ED50", "setting": "Mus musculus [2]", "value": ">8.8"},
      {"measurement": "Activity", "setting": "Mus musculus [3]", "value": "Active"},
      {"measurement": "Activity", "setting": "Mus musculus [4]", "value": "Non-toxic"},
      {"measurement": "Activity", "setting": "Mus musculus [5]", "value": "Non-toxic"},
      {"measurement": "ED50", "setting": "Mus musculus [6]", "value": 114, "unit": "mg/kg"}
    ]},
    {"smiles": "O=C(CN1C(=O)C(=O)c2cc(Br)ccc21)Nc1ccccc1", "values": [
      {"measurement": "Activity", "setting": "Mus musculus [3]", "value": "Active"},
      {"measurement": "Activity", "setting": "Mus musculus [4]", "value": "Non-toxic"},
      {"measurement": "Activity", "setting": "Mus musculus [5]", "value": "Non-toxic"}
    ]},
    {"smiles": "O=C(CN1C(=O)C(=O)c2cc(Cl)ccc21)Nc1ccccc1", "values": [
      {"measurement": "TD50 at 0.5 h", "setting": "[1]", "value": "> 800", "unit": "mg/kg"},
      {"measurement": "Ratio TD50/ED50", "setting": "Mus musculus [2]", "value": ">7.3"},
      {"measurement": "Activity", "setting": "Mus musculus [3]", "value": "Active"},
      {"measurement": "Activity", "setting": "Mus musculus [4]", "value": "Non-toxic"},
      {"measurement": "Activity", "setting": "Mus musculus [5]", "value": "Non-toxic"},
      {"measurement": "ED50", "setting": "Mus musculus [6]", "value": 110, "unit": "mg/kg"}
    ]},
    {"smiles": "O=C(CN1C(=O)C(=O)c2cccc(Cl)c21)Nc1ccccc1", "values": [
      {"measurement": "Activity", "setting": "Mus musculus [3]", "value": "Active"},
      {"measurement": "Activity", "setting": "Mus musculus [4]", "value": "Non-toxic"},
      {"measurement": "Activity", "setting": "Mus musculus [5]", "value": "Non-toxic"}
    ]},
    {"smiles": "Cc1ccc2c(c1)N(CC(=O)Nc1ccccc1)C(=O)C2=O", "values": [
      {"measurement": "TD50 at 0.5 h", "setting": "[1]", "value": "> 1000", "unit": "mg/kg"},
      {"measurement": "Ratio TD50/ED50", "setting": "Mus musculus [2]", "value": ">7.3"},
      {"measurement": "Activity", "setting": "Mus musculus [3]", "value": "Active"},
      {"measurement": "Activity", "setting": "Mus musculus [4]", "value": "Non-toxic"},
      {"measurement": "Activity", "setting": "Mus musculus [5]", "value": "Non-toxic"},
      {"measurement": "ED50", "setting": "Mus musculus [6]", "value": 136, "unit": "mg/kg"}
    ]},
    {"smiles": "O=C(CN1C(=O)C(=O)c2ccc(Br)cc21)Nc1ccccc1", "values": [
      {"measurement": "Activity", "setting": "Mus musculus [3]", "value": "inactive"},
      {"measurement": "Activity", "setting": "Mus musculus [4]", "value": "Non-toxic"},
      {"measurement": "Activity", "setting": "Mus musculus [5]", "value": "Non-toxic"}
    ]},
    {"smiles": "NC(=O)N1c2ccccc2C=Cc2ccccc21", "note": "[CARBAMAZEPINE]", "values": [
      {"measurement": "TD50 at 0.5 h", "setting": "[1]", "value": "> 71.6", "unit": "mg/kg"},
      {"measurement": "ED50", "setting": "Mus musculus [6]", "value": 8.8, "unit": "mg/kg"}
    ]},
    {"smiles": "Cc1ccc2c(c1)C(=O)C(=O)N2CC(=O)Nc1ccccc1", "values": [
      {"measurement": "TD50 at 0.5 h", "setting": "[1]", "value": "> 1000", "unit": "mg/kg"},
      {"measurement": "Ratio TD50/ED50", "setting": "Mus musculus [2]", "value": ">11"},
      {"measurement": "Activity", "setting": "Mus musculus [3]", "value": "Active"},
      {"measurement": "Activity", "setting": "Mus musculus [4]", "value": "Non-toxic"},
      {"measurement": "Activity", "setting": "Mus musculus [5]", "value": "Non-toxic"},
      {"measurement": "ED50", "setting": "Mus musculus [6]", "value": 91.3, "unit": "mg/kg"}
    ]}
  ]
}
